Patent US20110171285A1, “Design of Fibrinogen and Fibrinogen Derived Products with Reduced Bacterial Binding by Using Modified Sequences of Fibrinogen Chains” (priority 2009, published 2011)
Ends that are not written are not given here.

Experiments:
rClfA229-545 = target: T1, rClfA229-545 (Staphylococcus aureus, UniProt Q53653); assay: Isothermal titration calorimetry of Fg γ-peptide binding to rClfA229-545
T1 construct: 6xHis; made in house; host or cells: E. coli
T1 sequence (Q53653 229-545): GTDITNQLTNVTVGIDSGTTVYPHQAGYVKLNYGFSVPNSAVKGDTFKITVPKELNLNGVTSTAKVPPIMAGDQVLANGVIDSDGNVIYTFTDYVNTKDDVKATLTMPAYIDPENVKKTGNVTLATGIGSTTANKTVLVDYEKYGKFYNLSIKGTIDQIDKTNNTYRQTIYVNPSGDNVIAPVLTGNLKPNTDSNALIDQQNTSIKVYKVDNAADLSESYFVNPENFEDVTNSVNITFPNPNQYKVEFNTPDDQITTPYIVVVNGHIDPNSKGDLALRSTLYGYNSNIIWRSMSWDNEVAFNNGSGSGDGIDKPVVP
Description: Peptide 0.6-0.9 mM was injected into a cell with rClfA229-545 in a VP-ITC (MicroCal Inc.). The resulting data was analyzed using Origin 5.0 from MicroCal using a single binding site model.

S. aureus USA300 NARSA = assay: Adherence of S. aureus USA300 NARSA to Fg coated microtiter plates (crystal violet, OD 590 nm); assay type: cell-based; conditions: 1 μg Fg/well, MRSA strain grown over-night in tryptic soy broth (FIG. 7)
Description: Microtiter plates were coated with 1 μg human or salmon Fg per well over-night at 4° C., followed by blocking with 5% bovine serum albumin in TBS-T (Tris-buffered saline with 0.05% Tween-20) in room temperature for about 1 hour. Two bacterial colonies (designated by 1 or 2 in FIG. 7) of S. aureus USA300 NARSA (an MRSA strain) were inoculated in tryptic soy broth at 37° C. over-night, washed and resuspended in PBS and various bacterial dilutions were incubated in the wells for 1 hour at room temperature. After washing in PBS, bound bacteria was fixed using 25% formaldehyde followed by 0.5% crystal violet stain. After PBS washing, 10% acetic acid was added and bound color was measured by crystal violet staining and optical density read at 590 nm in a microtiter plate reader.

ClfA229-545 = ClfA229-545 (Staphylococcus aureus, UniProt Q53653); conditions: 1 μg Fg/well, varying concentrations of ClfA229-545, read at 405 nm (FIG. 6)
Description: About 3 mg lyophilized salmon Fg (batch “A”) was dissolved into 3 mg/ml in PBS. Human and salmon Fg was coated onto 4HBX microtiter plates (1 μg/well) at 4° C. over-night in Dulbecco's PBS without MgCl2 nor CaCl2 ions). The plate was blocked for 1 hour room temperature (RT) using 5% bovine serum albumin (BSA) in TBS-T. Recombinant His-tagged ClfA229-545 was added in varying concentrations to test for binding to Fg using TBS solution for 1 hour at room temperature. Bound ClfA was detected with anti-ClfA rabbit antibodies (dil 1:2000) in TBS-T with 1% BSA followed by goat anti-rabbit secondary antibodies (dil 1:2000) conjugated to alkaline phosphatase using the same buffer. Color detection was read after 30-60 min at 405 nm in a microtiter plate reader using phospatase substrate from Sigma dissolved in 1M DEA. No background subtraction, data points are triplicates except for no ClfA where six data points were used. Human or salmon Fg was coated over-night and after blocking varying concentrations of ClfA was added to Fg.

**Q.** With “GEGQQHHLGGAKQAGDV [human 17-mer peptide]” as the substance, how does the Kd (rClfA229-545) read?
**A.** 23 µM

**Q.** GQQHHLGGAKQAGDV [human 15-mer peptide] was tested. Which Kd (rClfA229-545) did it give?
**A.** 40 µM

**Q.** And the “binding to ClfA229-545” value (rClfA229-545; ITC, in solution (FIGS. 3A and 3B))?
**A.** binds to ClfA

**Q.** With human Fg: human fibrinogen as the substance, how does the “binding (adherence) of S. aureus USA300 to coated Fg” value (S. aureus USA300 NARSA) read?
**A.** bound

**Q.** What about the “binding of ClfA N2N3 to coated Fg” value (ClfA229-545) of the same substance?
**A.** dose-dependent binding
